One data set has as its target T1, hMMP-13 (Homo sapiens, UniProt P45452).
T1 construct: made in house
The data set is described as follows: In vitro metalloprotease inhibition, fluorogenic MCA peptide substrate. It counts as biochemical. The note with it: recombinant human enzyme, APMA activated, room temperature, pH 7.5. The protocol:
(§1) The compounds prepared in the manner described in Examples 1 to 15 were assayed for activity by an in vitro assay. Following the procedures of Knight et al., FEBS Lett. 296(3):263 (1992). Briefly, 4-aminophenylmercuric acetate (APMA) or trypsin activated MMPs were incubated with various concentrations of the inhibitor compound at room temperature for 5 minutes.
(§2) More specifically, recombinant human MMP-13 and MMP-1 enzymes were prepared in laboratories of the assignee. MMP-13 was expressed in baculovirus as a proenzyme, and purified first over a heparin agarose column and then over a chelating zinc chloride column. The proenzyme was activated by APMA for use in the assay. MMP-1 expressed in transfected HT-1080 cells was provided by Dr. Howard Welgus of Washington University, St. Louis, Mo. The enzyme was also activated using APMA and was then purified over a hydroxamic acid column.
(§3) The enzyme substrate is a methoxycoumarin-containing polypeptide having the following sequence:
(§4) MCA-ProLeuGlyLeuDpaAlaArgNH^2, wherein MCA is methoxycoumarin and Dpa is 3-(2,4-dinitrophenyl)-L-2,3-diaminopropionyl alanine. This substrate is commercially available from Baychem as product M-1895.
(§5) The buffer used for assays contained 100 mM Tris-HCl, 100 mM NaCl, 10 mM CaCl2 and 0.05 percent polyethyleneglycol (23) lauryl ether at a pH value of 7.5. Assays were carried out at room temperature, and dimethyl sulfoxide (DMSO) at a final concentration of 1 percent was used to dissolve inhibitor compound.
(§6) The assayed inhibitor compound in DMSO/buffer solution was compared to an equal amount of DMSO/buffer with no inhibitor as control using Microfluor™ White Plates (Dynatech). The inhibitor or control solution was maintained in the plate for 10 minutes and the substrate was added to provide a final concentration of 4 μM.
(§7) In the absence of inhibitor activity, a fluorogenic peptide was cleaved at the gly-leu peptide bond, separating the highly fluorogenic peptide from a 2,4-dinitrophenyl quencher, resulting in an increase of fluorescence intensity (excitation at 328 nm/emission at 415 nm). Inhibition was measured as a reduction in fluorescent intensity as a function of inhibitor concentration, using a Perkin Elmer L550 plate reader. The IC50 values were calculated from those values. The results are set forth in the Inhibition Table below as Table 9, reported in terms of IC50.

The target in the next data set is T2, hMMP-1 (Homo sapiens, UniProt P03956).
T2 construct: made in house; host or cells: transfected HT-1080 cells (provided by Dr. Howard Welgus, Washington University)
T2 sequence (P03956 100-469): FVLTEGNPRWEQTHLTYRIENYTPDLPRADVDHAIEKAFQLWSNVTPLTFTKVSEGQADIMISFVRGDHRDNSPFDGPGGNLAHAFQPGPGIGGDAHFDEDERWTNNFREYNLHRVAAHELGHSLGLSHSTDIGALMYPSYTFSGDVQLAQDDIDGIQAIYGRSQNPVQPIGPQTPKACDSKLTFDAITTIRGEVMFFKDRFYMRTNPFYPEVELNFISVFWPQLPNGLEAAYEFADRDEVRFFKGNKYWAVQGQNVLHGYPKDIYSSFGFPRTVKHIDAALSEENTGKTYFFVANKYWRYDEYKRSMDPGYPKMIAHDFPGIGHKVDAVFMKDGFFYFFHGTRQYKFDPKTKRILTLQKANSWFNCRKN
The description is as above. The data set is classed as biochemical. The note with it: recombinant human enzyme, APMA activated, room temperature, pH 7.5. How it is done: as §1, §2, §3, §4, §5, §6, §7

The target of another data set is hMMP-9 (Homo sapiens, UniProt P14780). The data set is described as above. The data set is classed as biochemical. The conditions noted are these: room temperature, pH 7.5. How it is done: as §1, §3, §4, §5, §6, §7
Sequence of hMMP-9 (P14780 107-707 limits assumed): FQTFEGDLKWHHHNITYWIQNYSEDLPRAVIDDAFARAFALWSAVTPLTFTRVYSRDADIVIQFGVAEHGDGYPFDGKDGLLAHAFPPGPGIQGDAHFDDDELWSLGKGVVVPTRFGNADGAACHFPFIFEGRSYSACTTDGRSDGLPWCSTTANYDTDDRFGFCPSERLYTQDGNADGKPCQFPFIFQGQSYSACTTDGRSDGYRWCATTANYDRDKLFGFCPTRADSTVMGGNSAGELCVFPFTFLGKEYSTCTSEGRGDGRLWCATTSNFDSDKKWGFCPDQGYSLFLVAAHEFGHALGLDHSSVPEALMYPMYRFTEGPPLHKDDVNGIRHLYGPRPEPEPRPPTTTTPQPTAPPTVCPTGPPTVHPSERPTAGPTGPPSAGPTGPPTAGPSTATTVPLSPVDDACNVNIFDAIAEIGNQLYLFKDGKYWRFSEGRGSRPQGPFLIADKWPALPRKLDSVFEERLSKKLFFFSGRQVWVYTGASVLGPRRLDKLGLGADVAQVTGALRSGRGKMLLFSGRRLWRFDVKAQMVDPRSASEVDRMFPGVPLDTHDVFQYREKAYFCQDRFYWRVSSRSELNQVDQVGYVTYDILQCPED
The target of a further data set is hMMP-8 (Homo sapiens, UniProt P22894). The data set is described as above. The data set is classed as biochemical. The conditions noted are these: room temperature, pH 7.5. The protocol:
as §1, §3, §4, §5, §6, §7

The target in another data set is hMMP-3 (Homo sapiens, UniProt P08254). The description is as above. The data set is classed as biochemical. The note with it: room temperature, pH 7.5. The protocol: as §1, §3, §4, §5, §6, §7
Sequence of hMMP-3 (P08254 100-477): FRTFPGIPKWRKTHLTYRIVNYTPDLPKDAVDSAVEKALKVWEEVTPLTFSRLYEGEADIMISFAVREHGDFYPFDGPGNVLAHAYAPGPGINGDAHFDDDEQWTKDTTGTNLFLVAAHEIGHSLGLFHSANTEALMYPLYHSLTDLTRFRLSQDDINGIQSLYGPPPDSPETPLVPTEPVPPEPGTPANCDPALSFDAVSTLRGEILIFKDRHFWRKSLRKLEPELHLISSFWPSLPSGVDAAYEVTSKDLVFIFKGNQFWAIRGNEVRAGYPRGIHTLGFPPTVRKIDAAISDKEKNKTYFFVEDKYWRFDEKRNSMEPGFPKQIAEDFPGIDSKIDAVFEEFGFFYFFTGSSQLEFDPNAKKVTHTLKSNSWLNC
Another data set deals with T3, hMMP-2 (Homo sapiens, UniProt P08253).
T3 sequence (P08253 110-660): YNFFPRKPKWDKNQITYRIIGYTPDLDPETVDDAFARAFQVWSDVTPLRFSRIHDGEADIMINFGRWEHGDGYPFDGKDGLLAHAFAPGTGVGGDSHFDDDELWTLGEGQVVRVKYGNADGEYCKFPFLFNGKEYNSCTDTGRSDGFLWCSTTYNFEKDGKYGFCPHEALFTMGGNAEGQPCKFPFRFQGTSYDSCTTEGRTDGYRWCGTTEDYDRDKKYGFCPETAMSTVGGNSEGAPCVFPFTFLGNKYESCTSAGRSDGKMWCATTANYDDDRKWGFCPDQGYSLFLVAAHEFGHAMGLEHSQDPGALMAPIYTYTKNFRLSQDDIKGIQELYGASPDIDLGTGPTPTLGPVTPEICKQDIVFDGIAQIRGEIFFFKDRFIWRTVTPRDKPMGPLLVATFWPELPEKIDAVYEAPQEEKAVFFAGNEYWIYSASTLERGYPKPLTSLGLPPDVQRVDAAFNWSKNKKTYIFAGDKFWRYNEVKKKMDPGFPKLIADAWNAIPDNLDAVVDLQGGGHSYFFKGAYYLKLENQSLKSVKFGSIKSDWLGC
Described as above. It counts as biochemical. The conditions noted are these: room temperature, pH 7.5. How it is done:
as §1, §3, §4, §5, §6, §7

Data set [1] deals with advanced, rapidly progressive, treatment-refractory solid tumor cancers. The conditions noted are these: cited from earlier work.

Where a name gives a salt, the structure may show the parent alone.

Sequence of hMMP-8 (P22894 101-467): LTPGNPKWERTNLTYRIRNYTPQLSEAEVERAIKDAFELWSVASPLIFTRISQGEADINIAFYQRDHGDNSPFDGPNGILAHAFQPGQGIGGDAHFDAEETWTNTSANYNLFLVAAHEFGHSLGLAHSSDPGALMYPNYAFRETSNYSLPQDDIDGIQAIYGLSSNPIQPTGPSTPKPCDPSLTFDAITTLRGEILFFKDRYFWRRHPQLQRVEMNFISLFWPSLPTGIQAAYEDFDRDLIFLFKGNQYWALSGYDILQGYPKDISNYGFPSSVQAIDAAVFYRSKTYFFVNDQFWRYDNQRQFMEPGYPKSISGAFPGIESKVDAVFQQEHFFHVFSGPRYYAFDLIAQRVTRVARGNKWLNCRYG

Regarding `C[C@H](C(=O)NO)N(CCN1CCOCC1)S(=O)(=O)c1ccc(NC(=O)c2ccccc2)cc1` [Example 4], the IC50 (in general, the concentration that gives 50% inhibition) at hMMP-13 was 2.5 nM; at hMMP-1, above 10000 nM; against hMMP-9 it was 20 nM.

`C[C@H](C(=O)NO)N(CCN1CCOCC1)S(=O)(=O)c1ccc(NC(=O)c2ccccc2)cc1` [Example 4a, (R)-N-[4-[[[2-(Hydroxyamino)-1-methyl-2-oxoethyl][2-4-morpholinyl)ethyl]amino]sulfonyl]phenyl]benzamide, Monohydrochloride]: the IC50 at hMMP-13 turned out to be 2.2 nM; against hMMP-9, 24 nM.

In the case of `C[C@H](C(=O)NO)N(CCN1CCOCC1)S(=O)(=O)c1ccc(NC(=O)c2ccc(Br)cc2)cc1` [Example 5], the results for the IC50 on hMMP-13 and at hMMP-1 were 0.35 nM and 4850 nM, respectively.

Turning to `C[C@H](C(=O)NO)N(CCN1CCOCC1)S(=O)(=O)c1ccc(NC(=O)C2CCCCC2)cc1` [Example 6], the values for the IC50 at hMMP-13, on hMMP-1 and against hMMP-9 were 250 nM, above 10000 nM and 3500 nM, respectively.

`CCCc1ccc(C(=O)Nc2ccc(S(=O)(=O)N(CCN3CCOCC3)[C@@H](C(=O)NO)C(C)C)cc2)cc1` [Example 7]: the IC50 was 0.3 nM at hMMP-13; 4000 nM at hMMP-1; 9 nM against hMMP-8; 4.5 nM at hMMP-9; 90 nM at hMMP-3.

Regarding `CCCCc1ccc(C(=O)Nc2ccc(S(=O)(=O)N(CCN3CCOCC3)[C@@H](C(=O)NO)C(C)C)cc2)cc1` [Example 8], the concentration for half-maximal inhibition (IC50) on hMMP-13 amounted to 0.1 nM; on hMMP-1, 4000 nM; at hMMP-8 it was 25.8 nM; at hMMP-9, 31 nM; against hMMP-3 it was 50 nM.

For the compound `CCCCCc1ccc(C(=O)Nc2ccc(S(=O)(=O)N(CCN3CCOCC3)[C@@H](C(=O)NO)C(C)C)cc2)cc1` [Example 9], the concentration for half-maximal inhibition (IC50) on hMMP-13 is below 0.1 nM; on hMMP-1, 4000 nM; against hMMP-8, 8 nM; against hMMP-9 it was 200 nM; on hMMP-3, 55 nM; against hMMP-2, below 0.1 nM.

Regarding `CCCCCCc1ccc(C(=O)Nc2ccc(S(=O)(=O)N(CCN3CCOCC3)[C@@H](C(=O)NO)C(C)C)cc2)cc1` [Example 10], the IC50 on hMMP-13 is below 0.1 nM; on hMMP-1, 5600 nM; against hMMP-9, 350 nM.

For `CCCCCCc1ccc(C(=O)Nc2ccc(S(=O)(=O)N(CCN3CCOCC3)[C@@H](C(=O)NO)C(C)C)cc2)cc1` [Example 10a, (R)-4-Hexyl-N-[4-[[[1-(hydroxyamino)-carbonyl]-2-methylpropyl][2-(4-morpholinyl)ethyl]amino]sulfonyl]phenylbenzamide], the IC50 against hMMP-8 is 2.6 nM; on hMMP-3 it was 180 nM; on hMMP-2, below 0.1 nM.

As to `CCCc1ccc(C(=O)Nc2ccc(S(=O)(=O)N(Cc3cccnc3)[C@@H](C(=O)NO)C(C)C)cc2)cc1` [Example 11], the IC50 on hMMP-13 was 0.5 nM; at hMMP-1 it was above 10000 nM; on hMMP-8, 39 nM; against hMMP-9, 24 nM; against hMMP-3, 225 nM; on hMMP-2, 0.1 nM.

`CC(C)[C@H](C(=O)NO)N(CCN1CCOCC1)S(=O)(=O)c1ccc(NC(=O)c2ccccc2)cc1` [Example 12]: the IC50 at hMMP-13 is 11.4 nM; at hMMP-1, 3400 nM; against hMMP-8 it was 12.3 nM; against hMMP-9, 245 nM; against hMMP-3, 800 nM.

With `CC(C)[C@H](C(=O)NO)N(CCN1CCOCC1)S(=O)(=O)c1ccc(NC(=O)c2ccc(Br)cc2)cc1` [Example 13], the half-maximal inhibitory concentration (IC50) is 0.4 nM on hMMP-13, 880 nM on hMMP-1 and 1.9 nM at hMMP-9.

On to `CCCCCc1ccc(C(=O)Nc2ccc(S(=O)(=O)N[C@H](Cc3ccccc3)C(=O)NO)cc2)cc1` [Example 14], for which the IC50 is below 0.1 nM at hMMP-13; above 10000 nM at hMMP-1; 34 nM at hMMP-8; 161 nM against hMMP-9; 30 nM on hMMP-3; below 0.1 nM on hMMP-2.

`CCCCCc1ccc(C(=O)Nc2ccc(S(=O)(=O)N(CCN3CCOCC3)[C@H](Cc3ccccc3)C(=O)NO)cc2)cc1` [Example 15]: the IC50 is below 0.1 nM at hMMP-13; above 10000 nM at hMMP-1; 241 nM on hMMP-8; 286 nM on hMMP-9; 140 nM against hMMP-3; below 0.1 nM against hMMP-2.

For the compound `CNC(=O)[C@@H](NC(=O)[C@H](CC(C)C)[C@H](O)C(=O)NO)C(C)(C)C` [marimastat], the “most common drug-related toxicity” value in data set [1] (clinical trials in patients) was “musculoskeletal pain and stiffness”. For the same compound, the “effect on cancer-specific antigens used as surrogate markers for biological activity” value in data set [1] (patients with colorectal, pancreatic, ovarian, prostate cancers) is reported as “dose-related reduction in the rise of cancer-specific antigens”.
